Measured values published in patent publication US20250188088A1, “COMPOUND AND USE THEREOF” (ONQUALITY PHARMACEUTICALS CHINA LTD., priority 2022, published 2025).

Key:
[1] = Plasma stability, human plasma; type: in vitro ADME, Humans; conditions: 37° C.
Protocol: (§1) In addition, the plasma stability of these compounds was determined. Briefly, the determination method comprises the following steps: • 1) Thaw the frozen mixed plasma in a 37° C. water bath before testing, and then centrifuge at 4000 rpm for 5 min to remove blood clots; • 2) Add 98 μL blank plasma into each well of the 96-well reaction plate; • 3) In addition to the blank samples, add 2 μL of 100 μM working solution of test compound into each well; • 3) Incubate the reaction plate at 37° C. and start timing. Incubation times were 0, 10, 30, 60 and 120 minutes, respectively, with two replicate wells at each time point; • 4) Terminate the incubation at the corresponding time point, and add 400 μL of acetonitrile solution containing 200 ng/mL tolbutamide and 200 ng/mL labetalol to precipitate proteins; • 5) Shake each plate for 20 minutes, then centrifuge at 4000 rpm for 20 minutes, transfer 50 μL of supernatant to another 96-well plate, and dilute each sample with 100 μL of pure water; • 6) Analyze the sample by LC-MS/MS.
The experiment results are as follows, and it can be seen from the test results that the selected compounds are easily metabolized to the target compound in human plasma.

[2] = Plasma stability, mini pig plasma; type: in vitro ADME, Mini Pigs; conditions: 37° C.
Protocol: as §1

CC(=O)OCCN(C)C(=O)n1ccc2c(N(C)[C@H]3CN(C(=O)CC#N)CC[C@H]3C)ncnc21 [Compound A13]
half-life at 2 µM [1]: 32.5 min | % Retained ([1]; 0 min): 100.0% | % Retained ([1]; 10 min): 77.1% | % Retained ([1]; 30 min): 48.2% | % Retained ([1]; 60 min): 28.1% | % Retained ([1]; 120 min): 7.4% | half-life at 2 µM [2]: > 289 min | % Retained ([2]; 0 min): 100.0% | % Retained ([2]; 10 min): 85.3% | % Retained ([2]; 30 min): 91.0% | % Retained ([2]; 60 min): 91.0% | % Retained ([2]; 120 min): 77.6%

C[C@@H]1CCN(C(=O)CC#N)C[C@@H]1N(C)c1ncnc2c1ccn2C(=O)N(C)CCOC(=O)C1CCN(C)CC1 [Compound A17]
half-life at 2 µM [1]: 25 min | % Retained ([1]; 0 min): 100.0% | % Retained ([1]; 10 min): 83.4% | % Retained ([1]; 30 min): 50.7% | % Retained ([1]; 60 min): 20.4% | % Retained ([1]; 120 min): 3.8% | half-life at 2 µM [2]: 66.8 min | % Retained ([2]; 0 min): 100.0% | % Retained ([2]; 10 min): 100.9% | % Retained ([2]; 30 min): 76.0% | % Retained ([2]; 60 min): 52.2% | % Retained ([2]; 120 min): 30.7%

C[C@@H]1CCN(C(=O)CC#N)C[C@@H]1N(C)c1ncnc2c1ccn2C(=O)N(C)CCOC(=O)c1ccncc1 [Compound A15]
half-life at 2 µM [1]: 4.8 min | % Retained ([1]; 0 min): 100.0% | % Retained ([1]; 10 min): 20.6% | % Retained ([1]; 30 min): 0.9% | % Retained ([1]; 60 min): 0.0% | % Retained ([1]; 120 min): 0.0% | half-life at 2 µM [2]: 71.5 min | % Retained ([2]; 0 min): 100.0% | % Retained ([2]; 10 min): 88.3% | % Retained ([2]; 30 min): 75.9% | % Retained ([2]; 60 min): 57.6% | % Retained ([2]; 120 min): 30.8%

CC(C)C(=O)OCCN(C)C(=O)n1ccc2c(N(C)[C@H]3CN(C(=O)CC#N)CC[C@H]3C)ncnc21 [Compound A19]
half-life at 2 µM [1]: 2.6 min | % Retained ([1]; 0 min): 100.0% | % Retained ([1]; 10 min): 5.1% | % Retained ([1]; 30 min): 0.0% | % Retained ([1]; 60 min): 0.0% | % Retained ([1]; 120 min): 0.0% | half-life at 2 µM [2]: 24.3 min | % Retained ([2]; 0 min): 100.0% | % Retained ([2]; 10 min): 73.0% | % Retained ([2]; 30 min): 46.2% | % Retained ([2]; 60 min): 18.5% | % Retained ([2]; 120 min): 3.3%

C[C@@H]1CCN(C(=O)CC#N)C[C@@H]1N(C)c1ncnc2c1ccn2C(=O)N(C)CCOC(=O)C(C)(C)C [Compound A23]
half-life at 2 µM [1]: 20.8 min | % Retained ([1]; 0 min): 100.0% | % Retained ([1]; 10 min): 60.2% | % Retained ([1]; 30 min): 40.1% | % Retained ([1]; 60 min): 18.5% | % Retained ([1]; 120 min): 1.6% | half-life at 2 µM [2]: 41.1 min | % Retained ([2]; 0 min): 100.0% | % Retained ([2]; 10 min): 75.1% | % Retained ([2]; 30 min): 51.3% | % Retained ([2]; 60 min): 39.2% | % Retained ([2]; 120 min): 12.0%
